Assay results as given in US20240270821A1, “GIP/GLP1/GCG TRI-RECEPTOR AGONISTS AND USES THEREOF” (priority 2023, published 2024).
Read-outs that look alike come from different tables or passages of the source. Starred links: 1 amine or outer side, 2 acyl side, 3 side chain; linkers in the order of their positions; H or OH if unused. Non-standard residues stand in square brackets, D forms with d. Groups on a side chain read outwards from the residue. No end group written: not given here. *: point of attachment. C18 diacid = O=C(O)CCCCCCCCCCCCCCCCC(=O)*; αMePhe(2-F) = C[C@](N)(Cc1ccccc1F)C(=O)O; γGlu = O=C(O)[C@H](CCC(=O)[*:2])N[*:1]; αMe4Pal = C[C@](N)(Cc1ccncc1)C(=O)O; αMeY = C[C@](N)(Cc1ccc(O)cc1)C(=O)O; 4Pal = N[C@@H](Cc1ccncc1)C(=O)O; αMeL = CC(C)C[C@](C)(N)C(=O)O; αMeS = C[C@](N)(CO)C(=O)O; Orn = NCCC[C@H](N)C(=O)O; AEEA = NCCOCCOCC(=O)O; Aib = CC(C)(N)C(=O)O

Experiments:
human GcgR = human GcgR (Homo sapiens, UniProt P47871); assay: Functional cAMP activity in the presence of 1% HSA; assay type: cell-based; settings: read-out: cAMP Rel EC50, hGcgR
human GcgR, sequence (P47871 26-477): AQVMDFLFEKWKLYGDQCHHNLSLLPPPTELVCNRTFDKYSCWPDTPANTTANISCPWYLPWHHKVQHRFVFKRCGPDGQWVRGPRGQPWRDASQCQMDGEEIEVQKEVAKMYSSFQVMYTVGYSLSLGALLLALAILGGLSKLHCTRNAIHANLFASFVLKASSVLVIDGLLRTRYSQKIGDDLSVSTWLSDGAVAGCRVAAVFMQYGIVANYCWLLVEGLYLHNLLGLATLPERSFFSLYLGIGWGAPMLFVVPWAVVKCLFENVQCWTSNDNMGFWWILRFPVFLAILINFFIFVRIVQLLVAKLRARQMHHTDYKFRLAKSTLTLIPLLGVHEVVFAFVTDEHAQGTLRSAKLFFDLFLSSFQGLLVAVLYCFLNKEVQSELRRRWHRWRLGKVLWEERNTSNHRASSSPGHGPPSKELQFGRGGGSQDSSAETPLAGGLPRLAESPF

human GLP1-R = human GLP1-R (Homo sapiens, UniProt P43220); assay: GLP1-R internalization assay in HEK293 cells; assay type: cell-based; settings: for EC50: HEK293 cells expressing SNAP-GLP-1R, read-out: GLP1R Internalization EC50; for Internalization % TOP: normalized to maximum concentration of GLP-1 (100%)
human GLP1-R, sequence (P43220 24-463): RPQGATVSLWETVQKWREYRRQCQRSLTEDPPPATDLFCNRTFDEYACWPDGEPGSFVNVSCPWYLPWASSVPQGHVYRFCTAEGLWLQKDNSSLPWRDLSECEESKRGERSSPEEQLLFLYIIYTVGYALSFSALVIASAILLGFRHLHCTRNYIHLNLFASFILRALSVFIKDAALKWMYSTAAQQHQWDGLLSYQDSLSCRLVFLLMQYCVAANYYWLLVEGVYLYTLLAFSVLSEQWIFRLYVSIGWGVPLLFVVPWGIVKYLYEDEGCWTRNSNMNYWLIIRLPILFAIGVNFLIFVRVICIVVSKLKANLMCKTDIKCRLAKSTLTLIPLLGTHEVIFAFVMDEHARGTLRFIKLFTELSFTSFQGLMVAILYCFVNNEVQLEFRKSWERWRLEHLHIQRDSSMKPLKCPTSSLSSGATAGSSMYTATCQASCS

hGIPR [1] = target: T1, hGIPR (Homo sapiens, UniProt P48546); assay: Functional cAMP activity in the presence of 1% HSA; assay type: cell-based; settings: read-out: cAMP Rel EC50, hGIPR
T1 sequence (P48546 22-466): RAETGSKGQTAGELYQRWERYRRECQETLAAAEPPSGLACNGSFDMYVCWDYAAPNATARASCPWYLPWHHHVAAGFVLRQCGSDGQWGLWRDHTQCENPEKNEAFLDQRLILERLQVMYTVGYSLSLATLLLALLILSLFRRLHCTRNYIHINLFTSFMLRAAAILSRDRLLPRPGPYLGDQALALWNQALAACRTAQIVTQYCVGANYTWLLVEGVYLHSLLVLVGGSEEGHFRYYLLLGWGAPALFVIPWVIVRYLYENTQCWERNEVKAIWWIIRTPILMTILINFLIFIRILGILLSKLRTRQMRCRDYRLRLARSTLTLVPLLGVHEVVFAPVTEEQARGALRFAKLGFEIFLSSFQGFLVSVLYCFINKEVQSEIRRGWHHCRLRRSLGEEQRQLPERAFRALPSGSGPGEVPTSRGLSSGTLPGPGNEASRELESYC

hGIPR [2] = target: T1, hGIPR; assay: Functional cAMP activation in the presence of 0.1% casein (no HSA); assay type: cell-based; settings: read-out: Relative cAMP EC50, hGIPR;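 on Relative cAMP EC50, hGIPR: intracellular cAMP rise after 30 min at 37 °C read by HTRF against a standard curve, scaled between buffer alone (0%) and top control ligand concentration (100%), four-parameter fit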;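 on Relative cAMP EC50, hGLP-1R: intracellular cAMP rise after 30 min at 37 °C read by HTRF, normalized between buffer only (0%) and maximal control ligand (100%), four-parameter variable-slope fit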;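 on Relative cAMP EC50, hGcgR: intracellular cAMP rise after 30 min at 37 °C, read by HTRF against a cAMP standard curve, scaled from buffer only (0%) to maximal control ligand response (100%)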
[3] = test system: Intestinal organoid from Göttingen minipig jejunum tissue, 2D monolayer; assay: Cell based in vitro permeability (Papp) assay; assay type: in vitro ADME
Protocol: Intestinal organoid from Göttingen minipig jejunum tissue and its 2D monolayer are generated using the protocol previously described ([…]-Thiele, […].; Wells, J. M., Optimized procedures for generating an enhanced, near physiological 2D culture system from porcine intestinal organoids. […] After 7 days of culture, organoids are dissociated into single cells by TrypLE (GIbco), and the single cell suspension is added in 24-well transparent transwell inserts (0.3 cm^2, Falcon, BD). […] Samples from the basal compartment are collected at 20 min in the presence of C10. Peptide concentrations in the apical and basal compartments are measured by LC/MS, and the apparent permeability coefficient (Papp) is calculated as previously described (Twarog, C.; Liu, K.; O'Brien, P. J.; Dawson, […] head-to-head Caco-2 assay comparison of the mechanisms of action of the intestinal permeation enhancers: SNAC and sodium caprate (C10).

hGLP-1R [4] = target: T2, hGLP-1R (Homo sapiens, UniProt P43220); assay: Functional cAMP activity in the presence of 1% HSA; assay type: cell-based; settings: read-out: cAMP Rel EC50, hGLP-1R
T2 sequence (P43220 24-463): as the sequence (P43220 24-463) above

hGLP-1R [5] = target: T2, hGLP-1R; assay: Functional cAMP activation in the presence of 0.1% casein (no HSA); assay type: cell-based; settings: read-out: Relative cAMP EC50, hGLP-1R;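 on Relative cAMP EC50, hGIPR: intracellular cAMP rise after 30 min at 37 °C read by HTRF against a standard curve, scaled between buffer alone (0%) and top control ligand concentration (100%), four-parameter fit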;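 on Relative cAMP EC50, hGLP-1R: intracellular cAMP rise after 30 min at 37 °C read by HTRF, normalized between buffer only (0%) and maximal control ligand (100%), four-parameter variable-slope fit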;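 on Relative cAMP EC50, hGcgR: intracellular cAMP rise after 30 min at 37 °C, read by HTRF against a cAMP standard curve, scaled from buffer only (0%) to maximal control ligand response (100%)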
hGcgR = hGcgR (Homo sapiens, UniProt P47871); assay: as above; assay type: cell-based; settings: read-out: Relative cAMP EC50, hGcgR;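 further: intracellular cAMP rise after 30 min at 37 °C, read by HTRF against a cAMP standard curve, scaled from buffer only (0%) to maximal control ligand response (100%)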
hGcgR, sequence (P47871 26-477): as the sequence (P47871 26-477) above

[6] = in the presence of 0.1% casein (no HSA), geometric mean

| Molecule | EC50 (human GcgR) [nM] | EC50 (human GLP1-R) [nM] | Internalization % TOP (human GLP1-R) [%] | EC50 (hGIPR [1]) [nM] | EC50 (hGIPR [2]; [6]) [nM] | Relative Papp (Compared to internal standard) [3] | EC50 (hGLP-1R [4]) [nM] | EC50 (hGLP-1R [5]; [6]) [nM] | EC50 (hGcgR; [6]) [nM] | EC50 (hGIPR [2]) [nM] | EC50 (hGLP-1R [5]) [nM] | EC50 (hGcgR) [nM] |
| --- | --- | --- | --- | --- | --- | --- | --- | --- | --- | --- | --- | --- |
| CC[C@H](C)[C@H](NC(=O)[C@H](Cc1ccccc1)NC(=O)[C@H](C)NC(=O)C(C)(C)NC(=O)[C@H](CCC(N)=O)NC(=O)[C@H](C)NC(=O)[C@H](CCCCNC(=O)COCCOCCNC(=O)CC[C@H](NC(=O)CCCCCCCCCCCCCCCCC(=O)O)C(=O)O)NC(=O)[C@H](CCCCN)NC(=O)[C@H](CC(=O)O)NC(=O)[C@H](CC(C)C)NC(=O)[C@](C)(CC(C)C)NC(=O)[C@H](CCCN)NC(=O)[C@H](CO)NC(=O)[C@H](Cc1ccccc1)NC(=O)[C@H](CC(=O)O)NC(=O)[C@H](CO)NC(=O)[C@@H](NC(=O)[C@H](Cc1ccccc1)NC(=O)[C@@H](NC(=O)CNC(=O)[C@H](CCC(N)=O)NC(=O)C(C)(C)NC(=O)[C@@H](N)Cc1ccc(O)cc1)[C@@H](C)O)[C@@H](C)O)C(=O)N[C@@H](CCC(=O)O)C(=O)N[C@@H](Cc1c[nH]c2ccccc12)C(=O)N[C@@H](CC(C)C)C(=O)N[C@@H](CC(C)C)C(=O)N[C@@H](CCC(=O)O)C(=O)NCC(=O)NCC(=O)N1CCC[C@H]1C(=O)N[C@@H](CO)C(=O)N[C@@H](CO)C(=O)NCC(=O)N[C@@H](C)C(=O)N1CCC[C@H]1C(=O)N1CCC[C@H]1C(=O)N1CCC[C@H]1C(=O)N[C@@H](CO)C(=O)NCC(=O)N[C@@H](CCC(=O)O)C(N)=O [Example 119] | 839 | 73.5 | 43.4 | 19.7 | 0.179 | 0.15 | 387 | 3.67 | 5.6 |  |  |  |
| CC[C@H](C)[C@H](NC(=O)[C@H](Cc1ccccc1)NC(=O)[C@H](C)NC(=O)C(C)(C)NC(=O)[C@H](CCC(N)=O)NC(=O)[C@H](C)NC(=O)[C@H](CCCCNC(=O)COCCOCCNC(=O)CC[C@H](NC(=O)CCCCCCCCCCCCCCCCC(=O)O)C(=O)O)NC(=O)[C@H](CCCCN)NC(=O)[C@H](CC(=O)O)NC(=O)[C@H](CC(C)C)NC(=O)[C@](C)(CC(C)C)NC(=O)[C@H](CCCN)NC(=O)[C@H](CO)NC(=O)[C@H](Cc1ccccc1)NC(=O)[C@H](CC(=O)O)NC(=O)[C@H](CO)NC(=O)[C@@H](NC(=O)[C@H](Cc1ccccc1)NC(=O)[C@@H](NC(=O)CNC(=O)[C@H](CCC(N)=O)NC(=O)C(C)(C)NC(=O)[C@@H](N)Cc1ccc(O)cc1)[C@@H](C)O)[C@@H](C)O)C(=O)N[C@@H](CCC(=O)O)C(=O)N[C@@H](Cc1ccc(O)cc1)C(=O)N[C@@H](CC(C)C)C(=O)N[C@@H](CC(C)C)C(=O)N[C@@H](CCC(=O)O)C(=O)N[C@H](C)C(=O)NCC(=O)N[C@@H](CCCCNC(C)=O)C(=O)N[C@@H](CO)C(=O)N[C@@H](CO)C(=O)NCC(=O)N[C@@H](C)C(=O)N1CCC[C@H]1C(=O)N1CCC[C@H]1C(=O)N1CCC[C@H]1C(=O)N[C@@H](CO)C(=O)NCC(=O)N[C@@H](CCC(=O)O)C(N)=O [Example 208] | 578 | 55.7 | 49.6 |  | 0.159 | 0.29 | 336 | 3.72 | 2.69 |  |  |  |
| CC[C@H](C)[C@H](NC(=O)[C@H](Cc1ccccc1)NC(=O)[C@H](C)NC(=O)C(C)(C)NC(=O)[C@H](CCC(N)=O)NC(=O)[C@H](C)NC(=O)[C@H](CCCCNC(=O)COCCOCCNC(=O)CC[C@H](NC(=O)CCCCCCCCCCCCCCCCC(=O)O)C(=O)O)NC(=O)[C@H](CCCCN)NC(=O)[C@H](CC(=O)O)NC(=O)[C@H](CC(C)C)NC(=O)[C@](C)(CC(C)C)NC(=O)[C@H](CCCN)NC(=O)[C@H](CO)NC(=O)[C@H](Cc1ccccc1)NC(=O)[C@H](CC(=O)O)NC(=O)[C@H](CO)NC(=O)[C@@H](NC(=O)[C@H](Cc1ccccc1)NC(=O)[C@@H](NC(=O)CNC(=O)[C@H](CCC(N)=O)NC(=O)C(C)(C)NC(=O)[C@@H](N)Cc1ccc(O)cc1)[C@@H](C)O)[C@@H](C)O)C(=O)N[C@@H](CCC(=O)O)C(=O)N[C@@H](Cc1c[nH]c2ccccc12)C(=O)N[C@@H](CC(C)C)C(=O)N[C@@H](CC(C)C)C(=O)N[C@@H](CCC(=O)O)C(=O)NCC(=O)NCC(=O)N1CCC[C@H]1C(=O)N[C@@H](CO)C(=O)N[C@@H](CO)C(=O)NCC(=O)N[C@@H](C)C(=O)N1CCC[C@H]1C(=O)N1CCC[C@H]1C(=O)N1CCC[C@H]1C(=O)N[C@@H](Cc1c[nH]cn1)C(=O)NCC(=O)N[C@@H](CO)C(N)=O [Example 249] | 604 | 86.2 | 34.8 | 22.5 | 0.173 | 0.04 | 256 |  | 5.55 |  |  |  |
| H-Y[Aib]QGT[αMePhe(2-F)]TSD[4Pal]SI[αMeL]LD[Orn]K([AEEA-γGlu-C18 diacid])AQ[αMe4Pal][Orn]FI[dE][αMeY]LIEGGPSSGEPPPEGE-NH2 [Example 675] | 207 |  |  | 1.16 |  | 0.36 | 25 |  |  | 0.0111 | 0.254 | 2.15 |
| H-Y[Aib]QGT[αMePhe(2-F)]TSD[4Pal][αMeS]I[αMeL]LD[Orn]K([AEEA-γGlu-C18 diacid])AQ[αMe4Pal]EFI[dE][αMeY]LIEGGPSSGEPPPSGS-NH2 [Example 710] | 126 |  |  | 0.589 |  | 0.35 | 28.7 |  |  | 0.00578 | 0.274 | 1.52 |
| H-Y[Aib]QGT[αMePhe(2-F)]TSD[4Pal][αMeS]I[αMeL]LD[Orn]K([γGlu-γGlu-C18 diacid])AQ[αMe4Pal]EFI[dE][αMeY]LIEGGPSSGAPPPEGGGE-NH2 [Example 761] | 162 |  |  | 0.635 |  | 0.53 | 26.1 |  |  | 0.00686 | 0.226 | 1.5 |
| H-Y[Aib]QGT[αMePhe(2-F)]TSD[4Pal][αMeS]I[αMeL]LD[Orn]K([γGlu-γGlu-C18 diacid])AQ[αMe4Pal]EFI[dE][αMeY]LIEGGPSSGAPPPSGGGE-NH2 [Example 743] | 133 |  |  | 0.432 |  | 0.56 | 21.2 |  |  | 0.00694 | 0.259 | 1.49 |
| H-Y[Aib]QGT[αMePhe(2-F)]TSD[4Pal][αMeS]I[αMeL]LD[Orn]K([γGlu-γGlu-C18 diacid])AQ[αMe4Pal]EFI[dE][αMeY]LVEGGPSSGEPPPSGS-NH2 [Example 737] | 122 |  |  | 0.498 |  | 0.69 | 22.3 |  |  | 0.00804 | 0.285 | 1.34 |
| Y[Aib]QGTFTSDFS[Orn][αMeL]LDKK([AEEA-γGlu-C18 diacid])AQ[Aib]AFIEYLLE[dA]GPSSGEPPPSGE-NH2 [Example 135] | 557 |  |  | 23.4 | 0.246 | 0.04 | 472 | 3.3 | 2.53 |  |  |  |
